This passage reports IC50 results from patent publication US12441736B2, “KIF18A inhibitors” (AMGEN INC., priority 2018, dated 2025).

T1 sequence (Q8NI77 1-467): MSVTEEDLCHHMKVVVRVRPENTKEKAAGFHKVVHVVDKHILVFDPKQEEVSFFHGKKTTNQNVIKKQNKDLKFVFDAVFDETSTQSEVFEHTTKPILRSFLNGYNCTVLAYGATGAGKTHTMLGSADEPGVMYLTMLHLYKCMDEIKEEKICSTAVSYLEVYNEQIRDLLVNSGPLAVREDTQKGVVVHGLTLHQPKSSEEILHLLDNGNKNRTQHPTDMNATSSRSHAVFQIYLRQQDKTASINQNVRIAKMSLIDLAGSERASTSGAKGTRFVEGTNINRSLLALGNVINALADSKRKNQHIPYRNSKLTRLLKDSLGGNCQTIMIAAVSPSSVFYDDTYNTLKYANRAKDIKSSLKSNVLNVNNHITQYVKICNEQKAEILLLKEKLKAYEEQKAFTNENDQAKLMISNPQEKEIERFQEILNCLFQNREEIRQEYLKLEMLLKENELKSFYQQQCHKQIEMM
T1 sequence (P02550 whole entry partner): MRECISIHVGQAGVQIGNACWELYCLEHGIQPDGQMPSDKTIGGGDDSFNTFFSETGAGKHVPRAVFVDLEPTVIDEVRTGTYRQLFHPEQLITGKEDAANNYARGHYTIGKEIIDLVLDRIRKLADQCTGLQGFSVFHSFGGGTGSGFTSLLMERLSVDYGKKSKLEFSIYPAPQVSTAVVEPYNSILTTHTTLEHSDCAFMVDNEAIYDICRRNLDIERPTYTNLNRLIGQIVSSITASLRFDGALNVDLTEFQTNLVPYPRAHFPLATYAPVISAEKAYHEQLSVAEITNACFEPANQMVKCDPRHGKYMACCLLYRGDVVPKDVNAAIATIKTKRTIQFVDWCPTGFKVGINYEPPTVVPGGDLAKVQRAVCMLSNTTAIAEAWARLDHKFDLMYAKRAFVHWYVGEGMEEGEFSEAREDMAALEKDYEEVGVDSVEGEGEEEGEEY
T1 sequence (P02554 whole entry partner): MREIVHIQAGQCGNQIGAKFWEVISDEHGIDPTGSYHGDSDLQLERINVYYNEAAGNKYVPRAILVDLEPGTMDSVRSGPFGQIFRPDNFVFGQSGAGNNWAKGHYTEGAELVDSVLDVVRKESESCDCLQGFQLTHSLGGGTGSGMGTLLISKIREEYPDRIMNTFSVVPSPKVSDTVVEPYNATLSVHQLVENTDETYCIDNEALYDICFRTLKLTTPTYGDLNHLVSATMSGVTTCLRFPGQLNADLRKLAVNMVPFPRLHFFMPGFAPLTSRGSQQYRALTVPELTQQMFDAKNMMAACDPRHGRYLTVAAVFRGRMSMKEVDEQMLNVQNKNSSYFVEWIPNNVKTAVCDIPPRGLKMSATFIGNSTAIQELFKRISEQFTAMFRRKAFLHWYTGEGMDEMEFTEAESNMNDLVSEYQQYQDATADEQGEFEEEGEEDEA

The experiment concerns the target T1, Recombinant human KIF18A (1-467 His-tagged) protein (Homo sapiens, UniProt Q8NI77).
T1 construct: Recombinant human KIF18A (1-467 His-tagged) protein; His; made in house
As to the kind of experiment: KIF18A Enzyme Assay: microtubule-stimulated ATPase activity (ADP-Glo). The class given is biochemical. As to conditions: 30 nM KIF18A, 30 μg/mL pig microtubules, 75 μM ATP, ADP-Glo luminescence. The source says: KIF18A Enzyme Assay: Microtubule-stimulated ATPase activity assay is used to measure KIF18A enzyme activity after treatment with compound. Compounds were 2-fold serially diluted in DMSO (Sigma Inc) over 22-point concentration range. Recombinant human KIF18A (1-467 His-tagged) protein was expressed using a baculovirus system and purified by affinity chromatography by Amgen Inc. Concentrations of KIF18A protein, microtubules (MT), and ATP in the reaction were optimized for standardized homogenous enzyme assay using ADP-Glo™ Kinase/ATPase Assay Kit (Promega Inc). The assay measures ADP formed from the ATPase reaction. Prepare reaction buffer [(15 mM Tris, pH 7.5 (Teknova Inc), 10 mM MgCl2 (IT Baker Inc), 0.01% Pluronic F-68 (Life Technologies Inc), 1 μM Taxol (Cytoskeleton Inc), and 30 μg/mL pig microtubules (Cytoskeleton Inc)]. Add compound and KIF18A protein (30 nM) to prepared reaction buffer and incubated for 15 minutes at room temperature, next add ATP (at Kin, 75 μM) to the reaction mixture and incubated for an additional 15 minutes at room temperature. Mix 5 μl of ADP-Glo™ Reagent and 2.5 μl of the reaction mixture and incubate for 40 minutes at room temperature. Add 10 μl ADP-Glo™ Detection Reagent and incubate for 40 minutes at room temperature. Read luminescence using EnVision microplate reader with ultra-luminescence module (Perkin Elmer Inc). Concentration-response curve-fitting and IC50 determination was performed using Genedata Screener Software (Standard 15.0.1, Genedata Inc) with a four-parameter logistic regression fit model.
Table A provides data for compounds exemplified in the present application and priority document thereof, as representative compounds of the present invention, as follows: chemical name (as named by either ACD software or ChemDraw (Professional 15.0)) and biological data (IC50 in μM). Ex. # refers to Example No.
Turning to `C[C@H]1CN(c2cccc(NC(=O)c3ncc(NC(C)(C)CO)nc3N3CCC4(CC3)CC4)n2)C[C@H](C)O1` (racemic) [Example 111, N-(6-((2S,6S)-2,6-dimethylmorpholino)pyridin-2-yl)-5-((1-hydroxy-2-methylpropan-2-yl)amino)-3-(6-azaspiro[2.5]octan-6-yl)pyrazine-2-carboxamide], the IC50 came to 110 nM.
Consider `CC(C)(CO)Nc1cnc(C(=O)Nc2cccc(N3C[C@@H]4C[C@H]3CO4)n2)c(N2CCC3(CC2)CC3)n1` (racemic) [Example 112, N-(6-((1S,4S)-2-oxa-5-azabicyclo[2.2.1]heptan-5-yl)pyridin-2-yl)-5-((1-hydroxy-2-methylpropan-2-yl)amino)-3-(6-azaspiro[2.5]octan-6-yl)pyrazine-2-carboxamide], for which the IC50 came out at 182 nM.
For `CC(C)(C)NS(=O)(=O)c1cccc(NC(=O)c2ccc(C(C)(O)C(F)(F)F)nc2N2CCC3(CC2)CC3)n1` (racemic) [Example 143, N-(6-(N-(tert-butyl)sulfamoyl)pyridin-2-yl)-2-(6-azaspiro[2.5]octan-6-yl)-6-(1,1,1-trifluoro-2-hydroxypropan-2-yl)nicotinamide] the value was 90.4 nM; for `C[C@H]1CN(c2cccc(NC(=O)c3ccc(NC(C)(C)CO)nc3N3CCC4(CC3)CC4)n2)C[C@H](C)O1` (racemic) [Example 150, N-(6-((2S,6S)-2,6-dimethylmorpholino)pyridin-2-yl)-6-((1-hydroxy-2-methylpropan-2-yl)amino)-2-(6-azaspiro[2.5]octan-6-yl)nicotinamide], 99.7 nM.
As for `CC(C)(CO)Nc1ccc(C(=O)Nc2cccc(N3C[C@@H]4C[C@H]3CO4)n2)c(N2CCC3(CC2)CC3)n1` (racemic) [Example 151, N-(6-((1S,4S)-2-oxa-5-azabicyclo[2.2.1]heptan-5-yl)pyridin-2-yl)-6-((1-hydroxy-2-methylpropan-2-yl)amino)-2-(6-azaspiro[2.5]octan-6-yl)nicotinamide], the figure is 90.5 nM; as for `CC(C)(C)NS(=O)(=O)c1cccc(NC(=O)c2ccc(C3(C(F)(F)F)COC(C)(C)O3)nc2N2CCC3(CC2)CC3)n1` (racemic) [Example 171, N-(6-(N-(tert-butyl)sulfamoyl)pyridin-2-yl)-6-(2,2-dimethyl-4-(trifluoromethyl)-1,3-dioxolan-4-yl)-2-(6-azaspiro[2.5]octan-6-yl)nicotinamide], 286 nM; as for `CC(C)(C)NS(=O)(=O)c1cccc(NC(=O)c2ccc(C(O)(CO)C(F)(F)F)nc2N2CCC3(CC2)CC3)n1` (racemic) [Example 172, N-(6-(N-(tert-butyl)sulfamoyl)pyridin-2-yl)-2-(6-azaspiro[2.5]octan-6-yl)-6-(1,1,1-trifluoro-2,3-dihydroxypropan-2-yl)nicotinamide], 120 nM.
As for `C[C@@H]1CO[C@@H](C)CN1c1cccc(NC(=O)c2ccc(NC(C)(C)CO)nc2N2CCC3(CC2)CC3)n1` (racemic) [Example 187, N-(6-((2S,5R)-2,5-dimethylmorpholino)pyridin-2-yl)-6-((1-hydroxy-2-methylpropan-2-yl)amino)-2-(6-azaspiro[2.5]octan-6-yl)nicotinamide], the figure is 252 nM.
As for `C[C@H]1CN(c2cccc(NC(=O)c3ccc(NC(C)(C)CO)nc3N3CCC4(CC3)CC4)n2)[C@@H](C)CO1` (racemic) [Example 199, N-(6-((2S,5S)-2,5-dimethylmorpholino)pyridin-2-yl)-6-((1-hydroxy-2-methylpropan-2-yl)amino)-2-(6-azaspiro[2.5]octan-6-yl)nicotinamide], the IC50 was found to be 243 nM.
For `CC(O)(c1ccc(C(=O)Nc2cccc(N3CCOCC3)n2)c(N2CCC3(CC2)CC3)n1)C(F)(F)F` (single isomer, unassigned) [Example 141] the value was 88 nM; for `CC(C)(C)NS(=O)(=O)c1cccc(NC(=O)c2ccc([C@@](C)(O)C(F)(F)F)nc2N2CCC3(CC2)CC3)n1` (single isomer, unassigned) [Example 153], 53.4 nM.
In the case of `CC(C)(C)NS(=O)(=O)c1cccc(NC(=O)c2ccc([C@](C)(O)C(F)(F)F)nc2N2CCC3(CC2)CC3)n1` (single isomer, unassigned) [Example 154], the 50% inhibitory concentration (IC50) is 105 nM.
For `CC(C)(C)NS(=O)(=O)c1cccc(NC(=O)c2ccc([C@@](O)(CO)C(F)(F)F)nc2N2CCC3(CC2)CC3)n1` (single isomer, unassigned) [Example 175] the value was 116 nM.
For `CC(C)(C)NS(=O)(=O)c1cccc(NC(=O)c2ccc([C@](O)(CO)C(F)(F)F)nc2N2CCC3(CC2)CC3)n1` (single isomer, unassigned) [Example 176] the value was 101 nM.
For `CC(C)(C)NS(=O)(=O)c1cccc(NC(=O)c2ccc([C@](C)(O)CO)nc2N2CCC3(CC2)CC3)n1` (single isomer, unassigned) [Example 177] the value was 87.3 nM; for `CC(C)(C)NS(=O)(=O)c1cccc(NC(=O)c2ccc([C@@](C)(O)CO)nc2N2CCC3(CC2)CC3)n1` (single isomer, unassigned) [Example 178], 109 nM; for `O=C(Nc1cccc(N2CCOCC2)n1)c1ccc([C@@](O)(CO)C(F)(F)F)nc1N1CCC2(CC1)CC2` (single isomer, unassigned) [Example 201], 76.9 nM.
Take `O=C(Nc1cccc(N2CCOCC2)n1)c1ccc([C@](O)(CO)C(F)(F)F)nc1N1CCC2(CC1)CC2` (single isomer, unassigned) [Example 202]: the half-maximal inhibitory concentration (IC50) is 68.4 nM.
For `C[C@@H]1CN(c2cccc(NC(=O)c3ccc([C@@](O)(CO)C(F)(F)F)nc3N3CCC4(CC3)CC4)n2)CCO1` (single isomer, unassigned) [Example 206] the value was 116 nM; for `C[C@@H]1CN(c2cccc(NC(=O)c3ccc([C@](O)(CO)C(F)(F)F)nc3N3CCC4(CC3)CC4)n2)CCO1` (single isomer, unassigned) [Example 207], 105 nM; for `CC1(C)COC(=O)N1c1ccc(C(=O)Nc2cccc(N3CC[C@H](O)C3(C)C)n2)c(N2CCC3(CC2)CC3)n1` (stereo in doubt) [Example 220, 6-(4,4-dimethyl-2-oxooxazolidin-3-yl)-N-(6-(3-hydroxy-2,2-dimethylpyrrolidin-l-yl)pyridin-2-yl)-2-(6-azaspiro[2.5]octan-6-yl)nicotinamide], 2250 nM.
As for `CC(C)(CO)Nc1cnc(C(=O)Nc2cccc(S(=O)(=O)N3CCCCC3)n2)c(N2CCC3(CC2)CC3)n1` [Example 100, 5-((1-hydroxy-2-methylpropan-2-yl)amino)-N-(6-(piperidin-1-ylsulfonyl)pyridin-2-yl)-3-(6-azaspiro[2.5]octan-6-yl)pyrazine-2-carboxamide], the figure is 70.5 nM; as for `O=C(Nc1cccc(S(=O)(=O)N2CCCCC2)n1)c1ncc(NC2(CO)CC2)nc1N1CCC2(CC1)CC2` [Example 101, 3-(6-azaspiro[2.5]oct-6-yl)-5-((1-(hydroxymethyl)cyclopropyl)amino)-N-(6-(1-piperidinylsulfonyl)-2-pyridinyl)-2-pyrazinecarboxamide], 106 nM.
As for `CC(C)(C)NS(=O)(=O)c1cccc(NC(=O)c2ncc(NC(C)(C)CO)nc2N2CCC3(CC2)CC3)n1` [Example 102, N-(6-(N-(tert-butyl)sulfamoyl)pyridin-2-yl)-5-((1-hydroxy-2-methylpropan-2-yl)amino)-3-(6-azaspiro[2.5]octan-6-yl)pyrazine-2-carboxamide], the figure is 75.3 nM.
With `C[C@@H]1CN(c2cccc(NC(=O)c3ncc(N4C(=O)OCC4(C)C)nc3N3CCC4(CC3)CC4)n2)CCO1` [Example 103, 3-(6-azaspiro[2.5]oct-6-yl)-5-(4,4-dimethyl-2-oxo-1,3-oxazolidin-3-yl)-N-(6-((2R)-2-methyl-4-morpholinyl)-2-pyridinyl)-2-pyrazinecarboxamide], the IC50 was 1940 nM.
As for `C[C@@H]1CN(c2cccc(NC(=O)c3ncc(NC(C)(C)CO)nc3N3CCC4(CC3)CC4)n2)CCO1` [Example 104, (R)-5-((1-hydroxy-2-methylpropan-2-yl)amino)-N-(6-(2-methylmorpholino)pyridin-2-yl)-3-(6-azaspiro[2.5]octan-6-yl)pyrazine-2-carboxamide], the figure is 83.4 nM.
For `C[C@H]1CCN(c2cccc(NC(=O)c3ncc(NC(C)(C)CO)nc3N3CCC4(CC3)CC4)n2)C1` [Example 105, 3-(6-azaspiro[2.5]oct-6-yl)-5-((1-hydroxy-2-methyl-2-propanyl)amino)-N-(6-((3S)-3-methyl-1-pyrrolidinyl)-2-pyridinyl)-2-pyrazinecarboxamide], the IC50 worked out at 122 nM.
`CC(C)(CO)Nc1cnc(C(=O)Nc2cccc(N3CCOCC3)n2)c(N2CCC3(CC2)CC3)n1` [Example 106, 3-(6-azaspiro[2.5]oct-6-yl)-5-((2-hydroxy-1,1-dimethylethyl)amino)-N-(6-(4-morpholinyl)-2-pyridinyl)-2-pyrazinecarboxamide]: the IC50 worked out at 84.4 nM.
